Where two headings read alike, the source gives them in different places.
System: ACEI-induced cough
Details: for Change of cough score, treatment versus observation period (in words): Wilcoxon's signed rank sum test, iron taking group; for Degree of cough, mean daily cough score: 10 patients on ACEI, observation period 6.14 ± 1.41
Description: The research pertaining to the ACEI-induced cough depressant effect by the iron was carried out with nineteen patients taking ACEI. These subjects were patients who developed cough as a result of the side effect caused by taking ACEI. The experiment period was divided into the observation period and the treatment period. 10 of the patients took iron and 9 of the patients took placebo.
The effect of the cough depressant containing iron of the present invention was tested. The cough depressant composition used in the test was ferrous sulphate. Anemia medicine sold as Feroba (trademark), whose ferrous sulphate was removed, was used as the placebo. The 19 tested patients had developed persistent dry cough while taking ACEI for various reasons. They include 6 men and 13 women, whose mean age was 59.9±12.2 years. The patients were divided into groups; the treatment group, which comprised 10 patients taking iron, and the control group, comprising 9 patients taking placebo. The characteristics of the patients are denoted in Table 1. All the patients gave informed consent, and the test was approved by the ethical committee of the Samsung Medical Center and Samsung Biomedical Research Center, Seoul, Korea.
ACEI-induced cough was defined as dry cough that occurred with ACEI use that subsided in seven days after discontinuation of the drug, and reappeared within 48 hours after the re-introduction of the drug and with no abnormality in the lungs and the bronchi.
19 patients completed a cough diary during a 2-week observation period while taking ACEI only. […] Each day was divided into two 12-hour periods. The daytime period began at 8 A.M., and the nighttime period, vice versa. Patients recorded the cough score for each period.
At the end of the observation period, blood samples were drawn from the patient for evaluation of hemoglobin level, hematocrit, iron concentration, total iron binding capacity (“TIBC”), and ferritin concentration. After sampling, they were randomized to either an iron taking group or placebo taking group. 256 mg of ferrous sulfate (of which 80 mg is ferrate) was daily administered to the iron taking group. During the four weeks of the treatment period, subjects were asked to fill in a cough diary in the identical way that they completed the diary in the observation period. After four weeks of the treatment period, blood sampling was repeated for the same evaluation (hemoglobin level, hematocrit, iron concentration, total iron binding capacity (“TIBC”) and ferritin concentration) that was performed in the initiation of the treatment period.
Cough scores from the last week of the observation period and the last week of the treatment period were compared and evaluated. The total sum of the cough scores were calculated from cough scores during the daytime and the nighttime recorded from the range of 0 to 4 for the last week of the observation period and the treatment period, and mean daily cough scores were calculated by dividing the total amount by days. Also, the cough score during the daytime and the nighttime was compared separately. […] The two groups were compared using Wilcoxon's signed rank sum test.

## O=S(=O)([O-])[O-].[Fe+2] [Iron, ferrous sulphate]
Listed as ferrous sulphate
  Change of cough score, treatment versus observation period (in words): significantly reduced
Listed as iron
  Change of cough score, treatment versus observation period (in words): significant reduction of dry cough
Last week of 4-week treatment period, 256 mg ferrous sulfate daily, mean ± SD
  Degree of cough, mean daily cough score: 3.39 ± 2.20 score
Last week of 4-week treatment period, 256 mg ferrous sulfate daily, mean ± SD, listed as iron
  Degree of cough, mean daily cough score: 3.39±2.20 score
Last week of 4-week treatment period, 256 mg ferrous sulfate daily, mean ± SD, observation period 2.86 ± 0.86
  Degree of cough, daytime cough score: 1.51 ± 1.00 score
Last week of 4-week treatment period, 256 mg ferrous sulfate daily, mean ± SD, observation period 3.29 ± 0.73
  Degree of cough, nighttime cough score: 1.87 ± 1.24 score
Of 10 patients in the iron taking group
  Number of patients showing almost complete abolishment of cough: three
Of 10 patients who took iron, treatment versus observation period
  Number of patients showing reduction in cough (decrease in cough score): 9 patients
